Laboratory results taken from publication PMC3516885 (Chembiochem : a European journal of chemical biology, 2012).
Positions of bridges follow the written chain, without caps; N, C: chain ends. Residues, ends and D or L forms follow the SMILES beside them.

Columns and labels:
[1] = Human serum stability assay; assay type: in vitro ADME; conditions: for peptide remaining after 24 hours in human serum (in words): 0.9 mg/mL, buffered human serum, 37 deg. C; for remaining at 7 h, 0.9 mg/mL: male, human, human type-AB serum diluted 9:1 in phosphate-buffered saline
Grb2-SH2 = Grb2-SH2 (Homo sapiens, UniProt P62993); assay type: binding; conditions: 5 nM pYVNV ligand, 0.91 μM Grb2-SH2
Sequence of Grb2-SH2 (P62993 60-152 limits assumed): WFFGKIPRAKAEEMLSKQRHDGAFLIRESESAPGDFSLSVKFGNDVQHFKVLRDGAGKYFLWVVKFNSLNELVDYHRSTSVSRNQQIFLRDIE

Row | remaining at 7 h, 0.9 mg/mL [1] [%] | inhibition of Grb2-SH2 in the competition assay (in words) (Grb2-SH2) | SMILES | peptide remaining after 24 hours in human serum (in words) [1]
1 | < 30 | – | CSCC[C@@H]1NC(=O)CNC(=O)[C@H](C(C)C)NC(=O)[C@H](CC(N)=O)NC(=O)[C@H](CCC(=O)O)NC(=O)[C@H](Cc2ccc(O)cc2)NC(=O)[C@H](CC(C)C)NC(=O)[C@H](CCC(=O)O)NC(=O)[C@@H](N)CSSC[C@@H](C(N)=O)NC(=O)[C@H](Cc2ccc(O)cc2)NC1=O [G1, reference compound] (H-CELYENVGMYC-NH2; disulfide 1-11; N-terminus and C-terminus assumed) | no detectable amounts of peptide remaining
2 | < 30 | little inhibitory activity | CSCC[C@@H]1NC(=O)CNC(=O)[C@H](C(C)C)NC(=O)[C@H](CC(N)=O)NC(=O)[C@@H]2CCCN2C(=O)[C@H](Cc2ccc(O)cc2)NC(=O)[C@H](CC(C)C)NC(=O)[C@H](CCC(=O)O)NC(=O)[C@@H](N)CSSC[C@@H](C(N)=O)NC(=O)[C@H](Cc2ccc(O)cc2)NC1=O [G1-Pro] (H-CELYPNVGMYC-NH2; disulfide 1-11; N-terminus and C-terminus assumed) | no detectable amounts of peptide remaining
